Test results from PubChem BioAssay (NCI).
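GI50: concentration for 50% inhibition of growth. TGI is the concentration that stops growth completely.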

Columns and labels:
Test in all cases: DTP human tumour cell line panel, 384-well format
[1] = tested on: NCI-H460 NSCLC
[2] = tested on: 786-0 renal
[3] = tested on: MOLT-4 leukemia
[4] = tested on: K-562 leukemia
[5] = tested on: HCT-15 colon
[6] = tested on: SF-539 CNS
[7] = tested on: SK-OV-3 ovarian
[8] = tested on: DU-145 prostate
[9] = tested on: NCI/ADR-RES ovarian
[10] = tested on: OVCAR-4 ovarian
[11] = tested on: M14 melanoma
[12] = tested on: MCF7 breast
[13] = tested on: CCRF-CEM leukemia
[14] = tested on: UO-31 renal
[15] = tested on: SNB-19 CNS
[16] = tested on: KM12 colon
[17] = tested on: MDA-MB-468 breast
[18] = tested on: HCC-2998 colon
[19] = tested on: NCI-H23 lung
[20] = tested on: LOX IMVI melanoma
[21] = tested on: EKVX NSCLC
[22] = tested on: A498 renal
[23] = tested on: NCI-H522 lung
[24] = tested on: CAKI-1 renal
[25] = tested on: RPMI-8226 leukemia
[26] = tested on: ACHN renal
[27] = tested on: HOP-62 NSCLC
[28] = tested on: OVCAR-5 ovarian
[29] = tested on: SK-MEL-5 melanoma

SMILES: CCc1cc2ncc(CN3CCN(c4ccc(C(=O)NC)nc4)CC3)cc2[nH]c1=O
- GI50 [1]: 2.5 µM
- TGI [1]: > 100 µM
- GI50 [2]: 72.2 µM
- TGI [2]: > 100 µM
- GI50 [3]: 2.3 µM
- TGI [3]: 26.1 µM
- GI50 [4]: 74.6 µM
- TGI [4]: > 100 µM
- GI50 [5]: 50 µM
- TGI [5]: > 100 µM
- GI50 [6]: > 100 µM
- TGI [6]: > 100 µM
- GI50 [7]: > 100 µM
- TGI [7]: > 100 µM
- GI50 [8]: > 100 µM
- TGI [8]: > 100 µM
- GI50 [9]: > 100 µM
- TGI [9]: > 100 µM
- GI50 [10]: 53.9 µM
- TGI [10]: > 100 µM
- GI50 [11]: > 100 µM
- TGI [11]: > 100 µM
- GI50 [12]: 23.6 µM
- TGI [12]: > 100 µM
- GI50 [13]: 29.5 µM
- TGI [13]: > 100 µM
- GI50 [14]: > 100 µM
- TGI [14]: > 100 µM
- GI50 [15]: > 100 µM
- TGI [15]: > 100 µM
- GI50 [16]: > 100 µM
- TGI [16]: > 100 µM
- GI50 [17]: 3.1 µM
- TGI [17]: 20.9 µM
- GI50 [18]: 20.2 µM
- TGI [18]: > 100 µM
- GI50 [19]: 87.2 µM
- TGI [19]: > 100 µM
- GI50 [20]: 23.9 µM
- TGI [20]: > 100 µM
- GI50 [21]: 78.6 µM
- TGI [21]: > 100 µM
- GI50 [22]: > 100 µM
- TGI [22]: > 100 µM
- GI50 [23]: 48.4 µM
- TGI [23]: > 100 µM
- GI50 [24]: 34.5 µM
- TGI [24]: > 100 µM
- GI50 [25]: 3.3 µM
- TGI [25]: 52.4 µM
- GI50 [26]: 70.5 µM
- TGI [26]: > 100 µM
- GI50 [27]: 26.1 µM
- TGI [27]: > 100 µM
- GI50 [28]: > 100 µM
- TGI [28]: > 100 µM
- GI50 [29]: > 100 µM
